The results in this text go back to patent US6828317B2, “Antimicrobial thiadiazinone derivatives and their application for treatment of bacterial infections” (Pharmacia & Upjohn Company, priority 2002, dated 2004).

≈ marks a conversion by molar mass, not a printed value.

Series [1] deals with S. pneumoniae UC9912. As to the kind of experiment: MIC by agar dilution, S. pneumoniae UC9912. The format is cell-based. Conditions: Streptococcus pneumoniae, Mueller Hinton agar, overnight at 35° C. From the text: (§1) The in vitro activity of compounds of the subject invention may be assessed by standard testing procedures such as the determination of minimum inhibitory concentration (MIC) by agar dilution as described in “Approved Standard. Methods for Dilution Antimicrobial Susceptibility Tests for Bacteria that Grow Aerobically,” 3rd ed., published 1993 by the National Committee for Clinical Laboratory standards, Villanova, Pa., USA. The in vitro MICs of test compounds may be determined by a standard agar dilution method. A stock drug solution of each analog is prepared in a preferred solvent, usually DMSO:H2O (1:3). Serial 2-fold dilutions of each sample are made using 1.0 ml aliquots of sterile distilled water. To each 1.0 ml aliquot of drug is added 9 ml of molten Mueller Hinton agar medium. The drug-supplemented agar is mixed, poured into 15×100 mm petri dishes, and allowed to solidify and dry prior to inoculation. Vials of each of the test microorganisms are maintained frozen in the vapor phase of a liquid nitrogen freezer. Test cultures are grown overnight at 35° C. on the medium appropriate for the microorganism. Colonies are harvested with a sterile swab, and cell suspensions are prepared in Trypticase Soy broth (TSB) to equal the turbidity of a 0.5 McFarland standard. A 1:20 dilution of each suspension is made in TSB. The plates containing the drug supplemented agar are inoculated with a 0.001 ml drop of the cell suspension using a Steers replicator, yielding approximately 10^4 to 10^5 cells per spot. The plates are incubated overnight at 35° C. Following incubation the Minimum Inhibitory Concentration (MIC μg/ml), the lowest concentration of drug that inhibits visible growth of the microorganism, is read and recorded.

Series [2] concerns S. aureus UC9213. As to the kind of experiment: MIC by agar dilution, S. aureus UC9213. In kind it is cell-based. The settings on record: Staphylococcus aureus, Mueller Hinton agar, overnight at 35° C.
Text: as §1
On the technique in general: In agar dilution, organisms are placed on agar that contains the substance at set levels.

Series [3] has as its system H. influenzae 30063. As to the kind of experiment: MIC by agar dilution, H. influenzae 30063. The format is cell-based. The settings on record: Haemophilus influenzae, Mueller Hinton agar, overnight at 35° C.
Text: as §1

By melting point is commonly meant the temperature, or range, at which the solid turns liquid. The compound `CC(=O)NC[C@H]1CN(c2ccc(C3=NNC(=O)C(C)(C)S3)c(F)c2)C(=O)O1` [Example 4, N-{3-[4-(6,6-Dimethyl-5-oxo-5,6-dihydro-4H-[1,3,4]thiadiazin-2-yl)-3-fluorophenyl]-2-oxo-oxazolidin-5(S)-ylmethyl}-acetamide] yielded a melting point of 179 to 181 °C. Further, the MIC in series [1] stood at 0.25 µg/mL (≈ 0.634 µM). In series [2], the MIC came to 2 µg/mL (≈ 5.07 µM). For the same compound, in series [3], the MIC was found to be 16 µg/mL (≈ 40.6 µM).

Take `NC(=O)NC[C@H]1CN(c2ccc(C3=NNC(=O)CS3)c(F)c2)C(=O)O1` [Example 18, {3-[3-Fluoro-4-(5-oxo-5,6-dihydro-4H-[1,3,4]thiadiazin-2-yl)-phenyl]-2-oxo-oxazolidin-5(S)-ylmethyl}-urea]: the melting point lay in the range of 235 to 236 °C. The same compound came in with an MIC in series [1] of 0.125 µg/mL (≈ 0.34 µM). In series [2], this compound returned an MIC of 2 µg/mL (≈ 5.44 µM). Further, in series [3], the MIC was 4 µg/mL (≈ 10.9 µM).

With `CC(=O)NC[C@H]1CN(c2ccc(C3=NNC(=O)[C@@H](C)S3)c(F)c2)C(=O)O1` [Example 3, N-{3-[3-Fluoro-4-(6(R)-methyl-5-oxo-5,6-dihydro-4H-[1,3,4]thiadiazin-2-yl)-phenyl]-2-oxo-oxazolidin-5(S)-ylmethyl}-acetamide], the melting point is 205 to 206 °C. This compound also came in with an MIC in series [1] of 0.25 µg/mL (≈ 0.657 µM). Also, the MIC in series [2] was 1 µg/mL (≈ 2.63 µM). In series [3], this compound showed an MIC of 4 µg/mL (≈ 10.5 µM).

In the case of `O=C1CSC(c2ccc(N3C[C@H](CNC(=O)C4CC4)OC3=O)cc2F)=NN1` [Example 16, Cyclopropanecarboxylic acid {3-[3-fluoro-4-(5-oxo-5,6-dihydro-4H-[1,3,4]thiadiazin-2-yl)-phenyl]-2-oxo-oxazolidin-5(S)-ylmethyl}-amide], the melting point fell in the range of 239 to 240 °C. This compound also came in with an MIC in series [1] of 0.125 µg/mL (≈ 0.319 µM). Moreover, the MIC in series [2] was determined as 2 µg/mL (≈ 5.1 µM). In series [3], the MIC is 2 µg/mL (≈ 5.1 µM).
